Paper PMC3408433, “Selective Cytotoxicity of Amidinopiperidine Based Compounds Towards Burkitt’s Lymphoma Cells Involves Proteasome Inhibition” (PLoS ONE, 2012)

Legend:
[1] = system: human T cell leukaemia (Jurkat); assay: Metabolic activity assay (MTS), Jurkat; assay type: cell-based; conditions: 50 µM, 24 h
Description: (§1) Compounds 11, and 14–16 were further tested for selective cytotoxicity. The experiments were conducted on freshly isolated primary peripheral blood mononuclear cells (PBMC) and three other haematological cancers: human T cell leukaemia (Jurkat), human histiocytic lymphoma (U937) and human Burkitt’s lymphoma (Daudi). An MTS assay was performed following 24 h of treatment with the compound of interest at 50 µM. […] The inhibition of proliferation in Ramos cells, mediated with compounds 15 and 16, was concentration dependent.
(§2) Cells (1×10^5 cells/mL for Ramos, Daudi, U937 and Jurkat, and 1×10^6 cells/mL for PBMC) were treated with the appropriate amounts of compounds of interest or corresponding vehicle (control cells), then seeded in triplicate in 96 well plates. The metabolic activity was assessed using the CellTiter 96® Aqueous One Solution Cell Proliferation Assay (Promega, Madison/WI, USA), in accordance with the manufacturer’s instructions.

[2] = system: peripheral blood mononuclear cells (PBMC); assay: Metabolic activity assay (MTS), PBMC; assay type: cell-based, human; conditions: 50 µM, 24 h
Description: as §1, §2

[3] = target: T1, caspase-like activity of human 20S proteasome (Homo sapiens, UniProt P28072); assay: Proteasome activity measurement, caspase-like; assay type: biochemical; conditions: purified human 20S proteasome, Z-Leu-Leu-Glu-AMC, uncompetitive
T1 construct: purchased Boston Biochem, Inc
Description: Suc-Leu-Leu-Val-Tyr-AMC, Bz-Val-Gly-Arg-AMC and Z-Leu-Leu-Glu-AMC (Bachem, Bubendorf, Switzerland) were used for the chymotrypsin-like, trypsin-like and caspase-like activites, respectively. Assay buffer consisted of TE buffer (20 mM Tris (pH = 8.0), 0.5 mM EDTA, 0.03% SDS). Substrate hydrolysis was continuously monitored at 37°C with an automated microplate reader (Tecan Safire^2). Measured fluorescence values (RFU) were plotted versus time with nonlinear regression to fit a Michaelis-Menten plot.
For the Ki determination, 25 µL of substrate at three concentrations and 25 µL of inhibitor of interest also at three different concentrations were added to the wells of a white microplate. The reaction was initiated with 50 µL of the enzyme in the assay buffer. Flourescence of the AMC release was continuously monitored at 420 nm with 320 nm excitation.
Km and Ki were calculated using SigmaPlot 11 (Enzyme Kinetics Module 1.3) and are presented as the mean of three independent experiments.

[4] = system: p65 and p50 translocation in Ramos cells; assay: Subcellular fractionation and Western blot of p65 and p50; assay type: cell-based, human; conditions: 50 µM
Description: (§3) Ramos cells were seeded in 6-well culture plates at a concentration of 1×10^6 cells/mL and treated with the compound of interest or corresponding vehicle for 1 h, 2 h or 6 h. After the indicated time points, cells were harvested, washed in ice-cold PBS and lysed in modified RIPA buffer (50 mM Tris-HCl, pH 7.4, 150 mM NaCl, 1% NP−40, 0.25% Na-deoxycholate, 1 mM EDTA, 1 µg/mL aprotinin, 1 mM PMSF and 1× Halt Phosphatase inhibitor cocktail (Thermo Scientific, Pierce Biotechnology, IL, USA)). The lysates were sonicated, rocked on ice for 30 min and centrifuged at 13,000 rpm at 4°C for 15 min. Protein samples were electrophoresed in SDS-polyacrylamide gels and then transferred to nitrocellulose membranes. The primary antibodies used were against ubiquitin, phospho-IκBα, IκBα, p65 and caspase-3 (Cell Signaling, Danvers/MA, USA), and p105/p50 (Santa Cruz Biotechnology, Inc., Santa Cruz/CA, USA), and ß-actin (Sigma-Aldrich). Following incubation with the primary antibody, membranes were washed six times and incubated for 1 h at room temperature with the corresponding dilution of the appropriate secondary antibody conjugated with horseradish peroxidase (Upstate, Temecula, CA, USA). The immunoreactivity of respective proteins of interest was determined by chemiluminescence using the SuperSignal West Femto substrate (Pierce, IL, USA), in accordance with the manufacturer's instructions. […]

[5] = system: human Burkitt’s lymphoma (Daudi); assay: Metabolic activity assay (MTS), Daudi; assay type: cell-based; conditions: 50 µM, 24 h
Description: as §1, §2

[6] = system: human histiocytic lymphoma (U937); assay: Metabolic activity assay (MTS), U937; assay type: cell-based; conditions: U937, 50 µM, 24 h
Description: as §1, §2

Thrombin = target: Thrombin; parameters: method as in PMID 15497744, PMID 15544050, PMID 17484277; conditions: amidolytic assay, chromogenic substrate; determined previously; cited from earlier work
Ramos cells = assay: Annexin V/7-AAD assay; assay type: cell-based, human; conditions: 16 h; for percentage of Annexin V positive cells: 50 µM, untreated 4% (Figure 5A)
Description: We used a PE Annexin V Apoptosis Detection Kit I (BD Biosciences) in accordance with the manufacturer’s instructions. Put briefly, Ramos cells were, following their treatment with the compound of interest, washed with cold PBS and resuspended in 1× binding buffer at a […] concentration. 100 µL of cell suspension was transferred to a 5 mL tube and 5 µL of both PE Annexin V and 7-AAD was added. The suspension was gently vortexed and incubated for 15 min at room temperature in the dark. Following this, 400 µL of 1× binding buffer was added and samples were analysed using a FACScalibur flow cytometer.

[7] = system: p105 and IκBα in Ramos cells; assay: Western blot analysis of phospho-p105, p105, phospho-IκB and IκB; assay type: cell-based, human; conditions: total level of both molecules remained the same
Description: as §3

[8] = system: ubiquitinated proteins in Ramos cells; assay: Western blot analysis of ubiquitinated proteins; assay type: cell-based, human; conditions: 6 h treatment
Description: as §3

[9] = presence of zVADfmk 50 µM (Figure 5D)

## N=C(N)N1CCC(CN(NS(=O)(=O)c2ccc3ccccc3c2)C(=O)N2CCCCC2)CC1 [Compound 15]
[1]
  residual metabolic activity relative to control: no or only moderate decreases
[2]
  residual metabolic activity relative to control: no or only moderate decreases
[3]
  Ki ' caspase-like activity: Ki ' = 165±26 µM
[4]
  translocation of p65 and p50 from the cytoplasm into the nucleus: no translocation of p65 and p50
[5]
  residual metabolic activity relative to control: severe and selective decrease
[6]
  residual metabolic activity relative to control: no or only moderate decreases
Thrombin
  Ki: 0.47 µM
Ramos cells
  percentage of Annexin V positive cells: 57%
[7]
  levels of p105 and IκBα (phosphorylated forms): accumulation of the phosphorylated forms of p105 and IκBα

## N=C(N)N1CCC(CN(NS(=O)(=O)c2ccc3ccccc3c2)C(=O)N2CCCCCC2)CC1 [Compound 16]
[1]
  residual metabolic activity relative to control: no or only moderate decreases
[2]
  residual metabolic activity relative to control: no or only moderate decreases
[3]
  Ki ' caspase-like activity: Ki ' = 70±3 µM
[5]
  residual metabolic activity relative to control: severe and selective decrease
[6]
  residual metabolic activity relative to control: no or only moderate decreases
Thrombin
  Ki: 0.5 µM
Ramos cells
  percentage of Annexin V positive cells: 39%
Ramos cells; absence of zVADfmk (Figure 5D)
  Annexin V positive cells (lower right quadrant): 30%
  living cells (lower left quadrant, Annexin V/7-AAD): 62%
Ramos cells; [9]
  Annexin V positive cells (lower right quadrant): 11%
  living cells (lower left quadrant, Annexin V/7-AAD): 82%
[8]
  polyubiquitinated proteins: increased amount of polyubiquitinated proteins
